Laboratory results taken from the supplement of paper PMC11061612.

Experiments:
Assay in all cases: combination Emax (second highest fraction inhibited in the dose matrix, 72 h); higher = more inhibition; extreme values may be limits of the assay
[1] = test system: P30-OHK (B-Lymphoblastic Leukemia)
In short: (§1)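 Cell lines in DMEM/F12 or RPMI with 10% FBS were plated in 1536-well plates, held 24 hours at 37°C, 5% CO2, then given two-drug dose matrices for 72 hours (DMSO typically 0.2%). Viability was read by CellTiter-Glo 2.0 luminescence and scaled as inhibition from 0 (vehicle wells) to 1 (blank wells). Combination Emax is the second-highest inhibition in the matrix; Bliss excess is observed combination effect minus expected EA + EB − EA·EB, EA and EB being single-agent effects.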

KALS-1 (Glioblastoma) = test system: KALS-1 (Glioblastoma)
In short: as §1

[2] = test system: SK-CO-1 (Colorectal Carcinoma)
In short: as §1

[3] = test system: MOLT-13 (T-Lymphoblastic Leukemia)
In short: as §1

[4] = test system: SNU-407 (Colorectal Carcinoma)
In short: as §1

[5] = test system: NAMALWA (Burkitt's Lymphoma)
In short: as §1

[6] = test system: COR-L88 (Small Cell Lung Carcinoma)
In short: as §1

[7] = test system: TUR (Acute Myeloid Leukemia)
In short: as §1

[8] = test system: RCC-JW (Kidney Carcinoma)
In short: as §1

[9] = test system: ZR-75-30 (Breast Carcinoma)
In short: as §1

[10] = test system: NMC-G1 (Low Grade Glioma)
In short: as §1

[11] = test system: MONO-MAC-6 (Acute Myeloid Leukemia)
In short: as §1

[12] = test system: MOLP-8 (Plasma Cell Myeloma)
In short: as §1

[13] = test system: P32-ISH (Burkitt's Lymphoma)
In short: as §1

IST-MEL1 (Melanoma) = test system: IST-MEL1 (Melanoma)
In short: as §1

ES6 (Ewing's Sarcoma) = test system: ES6 (Ewing's Sarcoma)
In short: as §1

[14] = test system: BHT-101 (Thyroid Gland Carcinoma)
In short: as §1

[15] = test system: NCI-H1963 (Small Cell Lung Carcinoma)
In short: as §1

NCI-H2373 (Mesothelioma) = test system: NCI-H2373 (Mesothelioma)
In short: as §1

WM35 (Melanoma) = test system: WM35 (Melanoma)
In short: as §1

CCc1c2c(nc3ccc(O)cc13)-c1cc3c(c(=O)n1C2)COC(=O)[C@]3(O)CC [SN-38] + CN(C)CCCOc1ccc(-c2ccc3ncc4c(c3c2)n(C2CCOCC2)c(=O)n4C)cn1 [AZD0156] (first compound max 0.3 µM, 7x7, partner max 1 µM)
combination Emax [1]: 0.973
combination Emax (KALS-1 (Glioblastoma)): 0.596
combination Emax [2]: 0.887
combination Emax [3]: 1
combination Emax [4]: 0.416
combination Emax [5]: 0.989
combination Emax [6]: 0.472
combination Emax [7]: 0.982
combination Emax [8]: 0.656
combination Emax [9]: 0.0683
combination Emax [10]: 0.24
combination Emax [11]: 1
combination Emax [12]: 0.78
combination Emax [13]: 1
combination Emax (IST-MEL1 (Melanoma)): 0.864
combination Emax (ES6 (Ewing's Sarcoma)): 0.603
combination Emax [14]: 0.774
combination Emax [15]: 0.822
combination Emax (NCI-H2373 (Mesothelioma)): 0.726
combination Emax (WM35 (Melanoma)): 0.509

CN(C)CCCOc1ccc(-c2ccc3ncc4c(c3c2)n(C2CCOCC2)c(=O)n4C)cn1 [AZD0156] + C=CCn1c(=O)c2cnc(Nc3ccc(N4CCN(C)CC4)cc3)nc2n1-c1cccc(C(C)(C)O)n1 [AZD1775] (first compound max 1 µM, partner max 1 µM)
combination Emax [1]: 0.678
combination Emax (KALS-1 (Glioblastoma)): 0.855
combination Emax [2]: 0.562
combination Emax [3]: 0.977
combination Emax [4]: 0.358
combination Emax [5]: 0.974
combination Emax [6]: 0.622
combination Emax [7]: 0.772
combination Emax [8]: 0.221
combination Emax [9]: 0.156
combination Emax [10]: 0.264
combination Emax [11]: 0.886
combination Emax [12]: 0.721
combination Emax [13]: 0.995
combination Emax (IST-MEL1 (Melanoma)): 0.551
combination Emax (ES6 (Ewing's Sarcoma)): 0.306
combination Emax [14]: 0.423
combination Emax [15]: 0.87
combination Emax (NCI-H2373 (Mesothelioma)): 0.408
combination Emax (WM35 (Melanoma)): 0.348

Cc1cc2ncnn2cc1Nc1ncc2c(n1)n(C1CCOCC1)c(=O)n2C [AZD7648] + CN(C)CCCOc1ccc(-c2ccc3ncc4c(c3c2)n(C2CCOCC2)c(=O)n4C)cn1 [AZD0156] (first compound max 10 µM, 7x7, partner max 1 µM)
combination Emax [1]: 0.376
combination Emax (KALS-1 (Glioblastoma)): 0.346
combination Emax [2]: 0.309
combination Emax [3]: 0.15
combination Emax [4]: 0.179
combination Emax [5]: 0.266
combination Emax [6]: 0.237
combination Emax [7]: 0.164
combination Emax [8]: 0.339
combination Emax [9]: 0.194
combination Emax [10]: 0.207
combination Emax [11]: 0.497
combination Emax [12]: 0.514
combination Emax [13]: 0.214
combination Emax (IST-MEL1 (Melanoma)): 0.275
combination Emax (ES6 (Ewing's Sarcoma)): 0.37
combination Emax [14]: 0.366
combination Emax [15]: 0.211
combination Emax (NCI-H2373 (Mesothelioma)): 0.566
combination Emax (WM35 (Melanoma)): 0.129

COc1cccc(OCCCN)c1-c1cc(Nc2cnc(C#N)cn2)n[nH]1 [Prexasertib] + Cc1cc2ncnn2cc1Nc1ncc2c(n1)n(C1CCOCC1)c(=O)n2C [AZD7648] (first compound max 1 µM, 7x7, partner max 10 µM)
combination Emax [1]: 0.984
combination Emax (KALS-1 (Glioblastoma)): 0.866
combination Emax [2]: 0.593
combination Emax [3]: 1
combination Emax [4]: 0.597
combination Emax [5]: 0.994
combination Emax [6]: 0.823
combination Emax [7]: 1
combination Emax [8]: 0.501
combination Emax [9]: 0.17
combination Emax [10]: 0.327
combination Emax [11]: 0.976
combination Emax [12]: 0.897
combination Emax [13]: 1
combination Emax (IST-MEL1 (Melanoma)): 0.772
combination Emax (ES6 (Ewing's Sarcoma)): 0.625
combination Emax [14]: 0.748
combination Emax [15]: 0.975
combination Emax (NCI-H2373 (Mesothelioma)): 0.531
combination Emax (WM35 (Melanoma)): 0.772

CCN(CCO)CCCOc1ccc2c(Nc3cc(CC(=O)Nc4cccc(F)c4)[nH]n3)ncnc2c1 [AZD2811] + C[C@@H]1COCCN1C2=NC(=NC(=C2)C3(CC3)[S@](=N)(=O)C)C4=C5C=CNC5=NC=C4 [AZD6738] (first compound max 1 µM, 7x7, partner max 10 µM)
combination Emax [1]: 0.928
combination Emax (KALS-1 (Glioblastoma)): 0.828
combination Emax [2]: 0.7
combination Emax [3]: 0.993
combination Emax [4]: 0.658
combination Emax [5]: 0.924
combination Emax [6]: 0.615
combination Emax [7]: 0.861
combination Emax [8]: 0.545
combination Emax [9]: 0.18
combination Emax [10]: 0.372
combination Emax [11]: 0.908
combination Emax [12]: 0.791
combination Emax [13]: 0.992
combination Emax (IST-MEL1 (Melanoma)): 0.731
combination Emax (ES6 (Ewing's Sarcoma)): 0.6
combination Emax [14]: 0.555
combination Emax [15]: 0.887
combination Emax (NCI-H2373 (Mesothelioma)): 0.534
combination Emax (WM35 (Melanoma)): 0.575

CC1(C)CCC(CN2CCN(c3ccc(C(=O)NS(=O)(=O)c4ccc(NCC5CCOCC5)c([N+](=O)[O-])c4)c(Oc4cnc5[nH]ccc5c4)c3)CC2)=C(c2ccc(Cl)cc2)C1 [Venetoclax] + C1CN(CCC1(C(=O)N[C@@H](CCO)C2=CC=C(C=C2)Cl)N)C3=NC=NC4=C3C=CN4 [Capivasertib] (first compound max 1 µM, 7x7, partner max 3 µM)
combination Emax [1]: 0.678
combination Emax (KALS-1 (Glioblastoma)): 0.714
combination Emax [2]: 0.187
combination Emax [3]: 0.566
combination Emax [4]: 0.388
combination Emax [5]: 0.534
combination Emax [6]: 0.557
combination Emax [7]: 0.599
combination Emax [8]: 0.157
combination Emax [9]: 0.312
combination Emax [10]: 0.111
combination Emax [11]: 0.704
combination Emax [12]: 0.385
combination Emax [13]: 0.306
combination Emax (IST-MEL1 (Melanoma)): 0.36
combination Emax (ES6 (Ewing's Sarcoma)): 0.47
combination Emax [14]: 0.214
combination Emax [15]: 0.775
combination Emax (NCI-H2373 (Mesothelioma)): 0.422
combination Emax (WM35 (Melanoma)): 0.178
